Measured values from patent publication US6737383B1, “Herbicidal oxadiazolidines” (priority 1999, dated 2004).

Assays:
field violet = assay: Test E field violet; format: in vivo, Viola arvensis; conditions: Postemergence
Procedure, shortened: (§1)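 Visually scored herbicidal effect relative to untreated plants, taken ~21 to 28 days post-application; compound in solvent with surfactant; postemergence sprays at the 1- to 4-leaf stage.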

giant foxtail = assay: Test C postemergence giant foxtail; format: in vivo, Setaria faberii; conditions: 0 to 100 scale, 0 no effect, 100 complete control
Procedure, shortened: (§2)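 Visual injury scored 0-100 (100 = complete control) versus untreated plants roughly 14 to 21 days after treatment. Plants were grown to suitable size in 60:40 sandy loam and potting mix, then treated postemergence with surfactant-containing solvent formulations.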

Russian thistle [1] = assay: Test E Russian thistle; format: in vivo, Salsola kali; conditions: Postemergence
Experimental: […] A mixture of sandy loam soil and greenhouse potting mix in a 60:40 ratio was used for the postemergence test.
(§3) Plantings of these crops and weed species were adjusted to produce plants of appropriate size for the postemergence test. All plant species were grown using normal greenhouse practices. Crop and weed species include annual bluegrass (Poa annua), blackgrass (Alopecurus myosuroides), black nightshade (Solanum nigra), chickweed (Stellaria media), common poppy (Papaver rhoeas), deadnettle (Lamium amplexicaule), downy brome (Bromus tectorum), field violet (Viola arvensis), galium (Galium aparine), green foxtail (Setaria viridis), Italian ryegrass (Lolium multiflorum), jointed goatgrass (Aegilops cylindrica), kochia (Kochia scoparia), lambsquarters (Chenopodium album), littleseed canarygrass (Phalaris minor), rape (Brassica napus), redroot pigweed (Amaranthus retroflexus), Russian thistle (Salsola kali), scentless chamomile (Matricaria inodora), spring barley (Hordeum vulgare), sugar beet (Beta vulgaris), sunflower (Helianthus annuus), ivyleaf speedwell (Veronica hederaefolia), spring wheat (Triticum aestivum), winter wheat (Triticum aestivum), wild buckwheat (Polygonum convolvulus), wild mustard (Sinapis arvensis), wild oat (Avena fatua), windgrass (Apera spica-venti) and winter barley (Hordeum vulgare).
(§4) Treated plants and untreated controls were maintained in a greenhouse for approximately 21 to 28 days, after which all treated plants were compared to untreated controls and visually evaluated. […] A dash response (-) means no test result.

kochia = assay: Test E kochia; format: in vivo, Kochia scoparia; conditions: Preemergence
ivyleaf speedwell = assay: Test E postemergence ivyleaf speedwell; format: in vivo, Veronica hederaefolia
Experimental: (§5) Compounds evaluated in this test were formulated in a non-phytotoxic solvent mixture which included a surfactant and applied to plants that were in the 1- to 4-leaf stage (postemergence application). A mixture of sandy loam soil and greenhouse potting mix in a 60:40 ratio was used for the postemergence test.
as §3, §4

jointed goatgrass = assay: Test E jointed goatgrass; format: in vivo, Aegilops cylindrica; conditions: Postemergence
Experimental: as §5, §3, §4

wild oat = assay: Test E wild oat; format: in vivo, Avena fatua; conditions: Postemergence
Procedure, shortened: as §1

blackgrass = assay: Test E blackgrass; format: in vivo, Alopecurus myosuroides; conditions: Postemergence
Experimental: as §5, §3, §4

Russian thistle [2] = assay: Test E Russian thistle; format: in vivo, Salsola kali; conditions: Preemergence
rape = assay: Test E rape; format: in vivo, Brassica napus; conditions: Preemergence
ivyleaf morningglory = assay: Test C postemergence ivyleaf morningglory; format: in vivo, Ipomoea hederacea; conditions: 0 to 100 scale, 0 no effect, 100 complete control
Procedure, shortened: as §2

galium = assay: Test E galium; format: in vivo, Galium aparine; conditions: Preemergence
chickweed = assay: Test E chickweed; format: in vivo, Stellaria media; conditions: Preemergence
wild buckwheat = assay: Test E wild buckwheat; format: in vivo, Polygonum convolvulus; conditions: Preemergence
lambsquarters = assay: Test C postemergence lambsquarters; format: in vivo, Chenopodium album; conditions: 0 to 100 scale, 0 no effect, 100 complete control
Procedure, shortened: as §2

littleseed canarygrass = assay: Test E littleseed canarygrass; format: in vivo, Phalaris minor; conditions: Postemergence
Procedure, shortened: as §1

[3] = Rate 250 g/ha, 0 to 100 scale (0 no effect, 100 complete control)
[4] = Rate 62 g/ha, 0 to 100 scale, 0 no effect, 100 complete control
[5] = Rate 125 g/ha, 0 to 100 scale (0 no effect, 100 complete control)
[6] = Rate 500 g/ha, 0 to 100 scale, 0 no effect, 100 complete control
[7] = Rate 500 g/ha, 0 to 100 scale where 0 is no effect and 100 is complete control

CCn1c(=O)on(C(=O)N(c2ccc(F)cc2)C(C)C)c1=O [Compound 107]
Plant response rating, Field violet (field violet; Rate 62 g/ha, 0 to 100 scale): 0
Plant response rating, Field violet (field violet; Rate 125 g/ha, 0 to 100 scale): 25
Plant response rating, Field violet (field violet; [3]): 0
Plant response rating, Giant foxtail (giant foxtail; Rate 280 g/ha): 70
Plant response rating, Giant foxtail (giant foxtail; Rate 560 g/ha): 95
Plant response rating, Giant foxtail (giant foxtail; Rate 1120 g/ha): 95
Plant response rating, Russian thistle (Russian thistle [1]; Rate 62 g/ha, 0 to 100 scale): 0
Plant response rating, Russian thistle (Russian thistle [1]; Rate 125 g/ha, 0 to 100 scale): 0
Plant response rating, Russian thistle (Russian thistle [1]; [3]): 0
Plant response rating, Kochia (kochia; [4]): 50
Plant response rating, Kochia (kochia; [5]): 60
Plant response rating, Kochia (kochia; Rate 250 g/ha, 0 to 100 scale): 80
Plant response rating, Veronica hedera (ivyleaf speedwell; Rate 62 g/ha, 0 to 100 scale): 10
Plant response rating, Veronica hedera (ivyleaf speedwell; Rate 125 g/ha, 0 to 100 scale): 0
Plant response rating, Veronica hedera (ivyleaf speedwell; [3]): 10
Plant response rating, Jointed goatgra (jointed goatgrass; Rate 62 g/ha, 0 to 100 scale): 0
Plant response rating, Jointed goatgra (jointed goatgrass; Rate 125 g/ha, 0 to 100 scale): 10
Plant response rating, Jointed goatgra (jointed goatgrass; [3]): 10
Plant response rating, Wild oat (wild oat; Rate 62 g/ha, 0 to 100 scale): 5
Plant response rating, Wild oat (wild oat; Rate 125 g/ha, 0 to 100 scale): 5
Plant response rating, Wild oat (wild oat; [3]): 0
Plant response rating, Blackgrass (blackgrass; Rate 62 g/ha, 0 to 100 scale): 5
Plant response rating, Blackgrass (blackgrass; Rate 125 g/ha, 0 to 100 scale): 80
Plant response rating, Blackgrass (blackgrass; [3]): 85
Plant response rating, Russian thistle (Russian thistle [2]; [4]): 0
Plant response rating, Russian thistle (Russian thistle [2]; [5]): 0
Plant response rating, Russian thistle (Russian thistle [2]; Rate 250 g/ha, 0 to 100 scale): 10
Plant response rating, Rape (rape; [4]): 60
Plant response rating, Rape (rape; [5]): 70
Plant response rating, Rape (rape; Rate 250 g/ha, 0 to 100 scale): 100
Plant response rating I. morningglory (ivyleaf morningglory; Rate 140 g/ha): 10
Plant response rating I. morningglory (ivyleaf morningglory; Rate 280 g/ha): 30
Plant response rating I. morningglory (ivyleaf morningglory; Rate 560 g/ha): 30
Plant response rating I. morningglory (ivyleaf morningglory; Rate 1120 g/ha): 95
Plant response rating, Galium (galium; [4]): 50
Plant response rating, Galium (galium; [5]): 70
Plant response rating, Galium (galium; Rate 250 g/ha, 0 to 100 scale): 100
Plant response rating, Chickweed (chickweed; [4]): 80
Plant response rating, Chickweed (chickweed; [5]): 50
Plant response rating, Chickweed (chickweed; Rate 250 g/ha, 0 to 100 scale): 50
Plant response rating, Wild buckwheat (wild buckwheat; [4]): 60
Plant response rating, Wild buckwheat (wild buckwheat; [5]): 90
Plant response rating, Wild buckwheat (wild buckwheat; Rate 250 g/ha, 0 to 100 scale): 95
Plant response rating, Lambsquarters (lambsquarters; Rate 140 g/ha): 0
Plant response rating, Lambsquarters (lambsquarters; Rate 280 g/ha): 0
Plant response rating, Lambsquarters (lambsquarters; Rate 560 g/ha): 40
Plant response rating, Lambsquarters (lambsquarters; Rate 1120 g/ha): 40
Plant response rating, LS canarygrass (littleseed canarygrass; Rate 62 g/ha, 0 to 100 scale): 15
Plant response rating, LS canarygrass (littleseed canarygrass; Rate 125 g/ha, 0 to 100 scale): 20
Plant response rating, LS canarygrass (littleseed canarygrass; [3]): 60

CCn1c(=O)on(C(=O)N(c2ccc(F)cc2F)C(C)C)c1=O [Compound 116]
Plant response rating, Field violet (field violet; Rate 62 g/ha, 0 to 100 scale): 60
Plant response rating, Field violet (field violet; Rate 125 g/ha, 0 to 100 scale): 0
Plant response rating, Field violet (field violet; [3]): 0
Plant response rating, Field violet (field violet; [6]): 0
Plant response rating, Giant foxtail (giant foxtail; Rate 280 g/ha): 60
Plant response rating, Giant foxtail (giant foxtail; Rate 560 g/ha): 60
Plant response rating, Giant foxtail (giant foxtail; Rate 1120 g/ha): 85
Plant response rating, Russian thistle (Russian thistle [1]; Rate 62 g/ha, 0 to 100 scale): 40
Plant response rating, Russian thistle (Russian thistle [1]; Rate 125 g/ha, 0 to 100 scale): 0
Plant response rating, Russian thistle (Russian thistle [1]; [3]): 0
Plant response rating, Russian thistle (Russian thistle [1]; [6]): 0
Plant response rating, Kochia (kochia; [5]): 0
Plant response rating, Kochia (kochia; Rate 250 g/ha, 0 to 100 scale): 85
Plant response rating, Kochia (kochia; [7]): 70
Plant response rating, Veronica hedera (ivyleaf speedwell; Rate 125 g/ha, 0 to 100 scale): 0
Plant response rating, Veronica hedera (ivyleaf speedwell; [3]): 0
Plant response rating, Veronica hedera (ivyleaf speedwell; [6]): 70
Plant response rating, Jointed goatgra (jointed goatgrass; Rate 62 g/ha, 0 to 100 scale): 30
Plant response rating, Jointed goatgra (jointed goatgrass; Rate 125 g/ha, 0 to 100 scale): 20
Plant response rating, Jointed goatgra (jointed goatgrass; [3]): 40
Plant response rating, Jointed goatgra (jointed goatgrass; [6]): 50
Plant response rating, Wild oat (wild oat; Rate 62 g/ha, 0 to 100 scale): 20
Plant response rating, Wild oat (wild oat; Rate 125 g/ha, 0 to 100 scale): 0
Plant response rating, Wild oat (wild oat; [3]): 30
Plant response rating, Wild oat (wild oat; [6]): 70
Plant response rating, Blackgrass (blackgrass; Rate 62 g/ha, 0 to 100 scale): 0
Plant response rating, Blackgrass (blackgrass; Rate 125 g/ha, 0 to 100 scale): 40
Plant response rating, Blackgrass (blackgrass; [3]): 80
Plant response rating, Blackgrass (blackgrass; [6]): 80
Plant response rating, Russian thistle (Russian thistle [2]; [5]): 0
Plant response rating, Russian thistle (Russian thistle [2]; Rate 250 g/ha, 0 to 100 scale): 0
Plant response rating, Russian thistle (Russian thistle [2]; [7]): 50
Plant response rating, Rape (rape; [5]): 60
Plant response rating, Rape (rape; Rate 250 g/ha, 0 to 100 scale): 100
Plant response rating, Rape (rape; [7]): 100
Plant response rating I. morningglory (ivyleaf morningglory; Rate 140 g/ha): 0
Plant response rating I. morningglory (ivyleaf morningglory; Rate 280 g/ha): 0
Plant response rating I. morningglory (ivyleaf morningglory; Rate 560 g/ha): 0
Plant response rating I. morningglory (ivyleaf morningglory; Rate 1120 g/ha): 20
Plant response rating, Galium (galium; [5]): 100
Plant response rating, Galium (galium; Rate 250 g/ha, 0 to 100 scale): 100
Plant response rating, Galium (galium; [7]): 100
Plant response rating, Chickweed (chickweed; [5]): 100
Plant response rating, Chickweed (chickweed; Rate 250 g/ha, 0 to 100 scale): 100
Plant response rating, Chickweed (chickweed; [7]): 100
Plant response rating, Wild buckwheat (wild buckwheat; [5]): 40
Plant response rating, Wild buckwheat (wild buckwheat; Rate 250 g/ha, 0 to 100 scale): 60
Plant response rating, Wild buckwheat (wild buckwheat; [7]): 95
Plant response rating, Lambsquarters (lambsquarters; Rate 140 g/ha): 0
Plant response rating, Lambsquarters (lambsquarters; Rate 560 g/ha): 0
Plant response rating, Lambsquarters (lambsquarters; Rate 1120 g/ha): 0
Plant response rating, LS canarygrass (littleseed canarygrass; Rate 62 g/ha, 0 to 100 scale): 10
Plant response rating, LS canarygrass (littleseed canarygrass; Rate 125 g/ha, 0 to 100 scale): 30
Plant response rating, LS canarygrass (littleseed canarygrass; [3]): 40
Plant response rating, LS canarygrass (littleseed canarygrass; [6]): 50
